According to patent US20110184011A1, “Compounds” (SELCIA LIMITED, priority 2008, published 2011):

Tests used:
[1] = test system: IL-1β stimulated IL-8 secretion in human umbilical vein endothelial cells (HUVECs); test: IL-1β stimulated IL-8 secretion assay in HUVEC cells (ELISA); type: cell-based; conditions: 0.5 ng/ml IL-1β; for inhibition at 1 µM: 1 μM compound, read-out: % Inhib at 1 μM; for inhibition at 1 µM / inhibition at 10 µM: IL-8 secretion; for inhibition at 10 µM: 10 μM compound, read-out: % Inhib at 10 μM; for IC50: 24 h, IL-8 ELISA
Description: Anti-inflammatory screening was established in human umbilical vein endothelial cells (HUVECs) to screen the test compounds for their ability to inhibit IL-1β stimulated IL-8 secretion from these cells. The level of secreted IL-8 in the HUVEC media was detected using a Quantikine™ Sandwich Enzyme-Linked Immunosorbent Assay (ELISA) from R&D Systems.
Cells and media were obtained from Cascade Biologics™ via Invitrogen. HUVECs were seeded in sterile 96-well tissue culture treated plates (0.1 ml per well, containing 2,400 cells; 8000 cells/cm^2). The seeded plates were incubated in a humidified incubator at 37 C/5% CO2. After 24 h, the media was replaced with fresh media (80 μl). The test compounds were serially diluted from 10 mM DMSO stocks with media to obtain dilutions 10× the final concentration. The compounds (10 μl) were added to the plates 30 min prior to the addition of 10 μl of 5 ng/ml stimulant IL-1β (final concentration 0.5 ng/ml). After incubating for 24 h, the plates were centrifuged at 200×g for 5 min (room temperature) and the media from each well transferred to a 96-well storage plate. Basal samples were assayed neat, but media from IL-1β stimulated cells was diluted in the calibrator diluent accompanying the IL-8 ELISA kit. The ELISA was performed according to the manufacturer's instructions.
A dose of 0.5 ng/ml IL-1β was chosen as a submaximal dose to observe the inhibition of IL-8 secretion with the test compounds.
Test compounds were initially screened at 10^−5M and 10^−6M for their ability to inhibit IL-1β stimulated IL-8 secretion (Table 1).

[2] = Solubility of the topical formulation in vehicle acetone:ethanol/1:1; type: physicochemical; conditions: 150, 50 and 15 mg/ml in acetone:ethanol/1:1
[3] = test system: IL-1β stimulated IL-8 secretion in human umbilical vein endothelial cells (HUVECs); test: IL-1β stimulated IL-8 secretion assay in HUVEC cells (ELISA); type: cell-based; conditions: 24-well format, increasing doses
[4] = test system: IL-1β stimulated IL-6 secretion in HUVECs; test: IL-1β stimulated IL-6 secretion in HUVECs (ELISA); type: cell-based, human; conditions: increasing doses of compound
Description: (§1) The HUVEC IL1β secretion assay was performed using a 24-well plate format similar to that described for IL-8 secretion above (0.5 ml per well containing 16,000 cells; 8000 cells/cm^2). Media was collected from untreated cells (basal) and cells treated with either 0.5 ng/ml IL-1β only, 10^−5M compound (2) only or IL-1β stimulated plus compound (2). Media from 2 wells were pooled for each condition.
(§2) Using the results of the protein array, the effect of compound (2) on the secretion of five other cytokines stimulated by IL-1β was also measured in HUVECs. These included: GROα, MCP-1, GM-CSF, sICAM-1 and IL-6. The HUVECs were seeded in sterile 24-well tissue culture treated plates (as described above). The cells were treated with increasing doses of compound (2) prior to stimulating with IL-1β as described above. All cytokines were measured using the appropriate Quantikine® Sandwich ELISA from R&D Systems according to the manufacturer's instructions.

[5] = test system: IL-1β stimulated MCP-1 secretion in HUVECs; test: IL-1β stimulated MCP-1 secretion in HUVECs (ELISA); type: cell-based, human; conditions: increasing concentration of compound
Description: as §1, §2

[6] = test system: IL-1β stimulated GROα secretion in HUVECs; test: IL-1β stimulated GROα secretion in HUVECs (ELISA); type: cell-based, human; conditions: increasing concentration of compound
Description: as §1, §2

[7] = test system: BALB/c mice, oxazolone-induced ear edema; test: Mouse allergic contact dermatitis model induced by oxazolone, topical application, ear swelling; type: in vivo; conditions: for effect on inflammation in mouse allergic contact dermatitis model: topical application, 0.3-3 mg/ear x2, result in words
Description: BALB/c derived male mice, weighing 23±2 g were housed in individually ventilated cages racks (IVC Racks, 36 Mini Isolator systems) throughout the experiment. Five mice per group were kept in a cage (in cm, 26.7 length×20.7 width×14.0 height) and maintained under controlled temperature (21-23° C.) and humidity (50%-70%) with 12-hour light/dark cycles. The animals were given free access to sterilized lab chow and reverse osmosis (RO) water ad libitum. All aspects of this work, i.e. housing, experimentation and disposal of animals, are performed in general accordance with the Guide for the Care and Use of Laboratory Animals (National Academy Press, Washington, D.C., 1996).
Compound (2) was prepared as 150, 50 and 15 mg/ml in vehicle, acetone:ethanol/1:1. The preshaven abdomens of five groups of 5 BALB/c test mice were sensitized by application of 100 μL of 1.5% oxazolone solution dissolved in acetone. Seven days after the initial sensitization, test substance (0.3, 1 and 3 mg in 20 μl/ear) and vehicle (acetone:ethanol/1:1, 20 μL/ear) were each administered topically to the anterior and posterior surfaces of the right ear 30 minutes before and 15 minutes after challenge by the second application of oxazolone (1% in acetone, 20 μL/ear). As a positive control, dexamethasone (0.1 mg/ear) was administered topically using the same treatment regime as the test compound. Twenty-four hours after the second application of oxazolone, the ear thickness of each mouse was measured with a Dyer model micrometer gauge. Ear edema was calculated by subtracting the thickness of the left ear (normal control) from the right ear (treated ear). Percent inhibition was calculated according to the formula: [(Ic−It)/Ic]×100%, where Ic and It refer to increase of ear thickness (mm) in control and treated mice, respectively. A 30 percent or more (30%) inhibition in ear swelling relative to the vehicle control is considered significant and indicates possible anti-inflammatory activity.

[8] = test system: IL-1β stimulated GM-CSF secretion in HUVECs; test: IL-1β stimulated GM-CSF secretion in HUVECs (ELISA); type: cell-based, human; conditions: increasing doses of compound
Description: as §1, §2

Row | SMILES | inhibition at 1 µM [1] | inhibition at 10 µM [1] | IC50 [1] | further results
1 | NC(=O)c1cc(-c2cccnc2)n2c1CCCC2 [Compound 1, 3-pyridin-3-yl-5,6,7,8-tetrahydro-indolizine-1-carboxamide] | 31.8% | 34.7% | – | –
2 | NC(=O)c1c(Cl)c(-c2cccnc2)n2c1CCCC2 [Compound 2, 2-Chloro-3-pyridin-3-yl-5,6,7,8-tetrahydro-indolizine-1-carboxamide] | 49.4% | 59.5% | 350 nM | solubility of formulation [2]: not completely soluble; effect on IL-1β stimulated IL-8 secretion [3]: inhibited IL-8 and GM-CSF to a similar extent; effect on IL-1β stimulated IL-6 levels [4]: increased IL-6 levels further; effect on IL-1β stimulated MCP-1 [5]: little effect; reduction of IL-1β stimulated GROα levels [6]: ~25%; inhibition of ear swelling relative to vehicle control ([7]; 0.3 mg/ear x2 topical, 30 min before and 15 min after oxazolone challenge, measured at 24 h): 25%; inhibition of ear swelling relative to vehicle control ([7]; 1 mg/ear x2 topical, 30 min before and 15 min after oxazolone challenge, measured at 24 h): 29%; inhibition of ear swelling relative to vehicle control ([7]; 3 mg/ear x2 topical, 30 min before and 15 min after oxazolone challenge, measured at 24 h): 40%; effect on inflammation in mouse allergic contact dermatitis model ([7]; listed as compound 2): not as potent as dexamethasone; effect on inflammation in mouse allergic contact dermatitis model ([7]; listed as compound (2)): dose dependently inhibited inflammation; effect on IL-1β stimulated GM-CSF levels [8]: dose dependently decreased
3 | Cc1ccncc1-c1cc(C#N)c2n1CCCC2 [Compound 3, 3-(4-Methyl-pyridin-3-yl)-5,6,7,8-tetrahydro-indolizine-1-carbonitrile] | 34.4% | 35% | – | –
4 | Cc1ccncc1-c1cc(C(N)=O)c2n1CCCC2 [Compound 4, 3-(4-Methyl-pyridin-3-yl)-5,6,7,8-tetrahydro-indolizine-1-carboxylic acid amide] | 15.9% | 30.8% | – | –
5 | NC(=O)c1c(Cl)c(-c2cccnc2)n2c1C(O)CCC2 (stereo not shown) [Compound 5, 2-Chloro-8-hydroxy-3-pyridin-3-yl-5,6,7,8-tetrahydro-indolizine-1-carboxylic acid amide] | 29% | 52.4% | 760 nM | –
6 | N#Cc1c(Cl)c(-c2cccnc2)n2c1C(O)CCC2 (stereo not shown) [Compound 6, 2-Chloro-8-hydroxy-3-pyridin-3-yl-5,6,7,8-tetrahydro-indolizine-1-carbonitrile] | 52.2% | 21.8% | – | –
7 | COC1CCCn2c(-c3cccnc3)c(Cl)c(C(N)=O)c21 (stereo not shown) [Compound 7, 2-Chloro-8-methoxy-3-pyridin-3-yl-5,6,7,8-tetrahydro-indolizine-1-carboxylic acid amide] | 1.4% | 32.1% | – | –
8 | Cc1ccncc1-c1c(Cl)c(C#N)c2n1CCCC2 [Compound 8, 2-Chloro-3-(4-Methyl-pyridin-3-yl)-5,6,7,8-tetrahydro-indolizine-1-carbonitrile] | 5.5% | 39.6% | – | –
9 | Cc1ccncc1-c1c(Cl)c(C(N)=O)c2n1CCCC2 [Compound 9, 2-Chloro-3-(4-methyl-pyridin-3-yl)-5,6,7,8-tetrahydro-indolizine-1-carboxylic acid amide] | 42.2% | 49.6% | 510 nM | –
10 | N#Cc1c(Cl)c(-c2cccnc2)n2c1C(=O)C(Cl)(Cl)CC2 [Compound 10, 2,7,7-Trichloro-8-oxo-3-pyridin-3-yl-5,6,7,8-tetrahydro-indolizine-1-carbonitrile] | 18.8% | 35.7% | – | –
11 | NC(=O)c1c(Cl)c(-c2cccnc2)n2c1C(=O)CCC2 [Compound 11, 2-Chloro-8-oxo-3-pyridin-3-yl-5,6,7,8-tetrahydro-indolizine-1-carboxylic acid amide] | 32.9% | 31.7% | – | –
12 | NC(=O)c1c(Cl)c(-c2cccnc2)n2c1C=CCC2 [Compound 12, 2-Chloro-3-pyridin-3-yl-5,6-dihydro-indolizine-1-carboxylic acid amide] | 22.7% | 52.7% | 1600 nM | –
13 | C[C@@H]1C[C@H]2[C@@H]3CCC4=CC(=O)C=C[C@]4(C)[C@@]3(F)[C@@H](O)C[C@]2(C)[C@@]1(O)C(=O)CO [dexamethasone, reference compound] | – | – | – | inhibition of ear swelling relative to vehicle control ([7]; 0.1 mg/ear topical, same regime, positive control): 72%
